Data taken from the supplement of paper PMC10733146.

Columns and labels:
Assay in all cases: viability relative to DMSO control (fraction); higher = less drug effect (more viable cells)
Settings in all cases: 48 h
[1] = system: primary AML patient cells (S002)
Procedure, shortened: (§1)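 Using 384-well plates with compounds already plated at five concentrations, one well per concentration, 4 × 10^4 primary mononuclear tumour cells were added per well. Cells were Ficoll-isolated from blood or bone marrow or came from processed lymph node, fresh or cryopreserved. They were kept for 48 h at 37 °C and 5% CO2 in RPMI-1640 supplemented with penicillin/streptomycin, L-glutamine and human serum, and viability was read as CellTiter-Glo luminescence relative to the median of 16 inner DMSO wells.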

[2] = system: primary AML patient cells (S006)
Procedure, shortened: as §1

[3] = system: primary AML patient cells (S011)
Procedure, shortened: as §1

[4] = system: primary AML patient cells (S012)
Procedure, shortened: as §1

[5] = system: primary AML patient cells (S017)
Procedure, shortened: as §1

[6] = system: primary AML patient cells (S019)
Procedure, shortened: as §1

[7] = system: primary AML patient cells (S021)
Procedure, shortened: as §1

[8] = system: primary AML patient cells (S025)
Procedure, shortened: as §1

[9] = system: primary AML patient cells (S037)
Procedure, shortened: as §1

[10] = system: primary AML patient cells (S081)
Procedure, shortened: as §1

[11] = system: primary AML patient cells (S085)
Procedure, shortened: as §1

[12] = system: primary AML patient cells (S089)
Procedure, shortened: as §1

[13] = system: primary AML patient cells (S091)
Procedure, shortened: as §1

[14] = system: primary CLL patient cells (S043)
Procedure, shortened: as §1

CCc1nc(C(N)=O)c(Nc2ccc(N3CCC(N4CCN(C)CC4)CC3)c(OC)c2)nc1NC1CCOCC1 [Gilteritinib]
viability ([1]; 0.024 µM): 1.13
viability ([1]; 0.12 µM): 1.01
viability ([1]; 0.6 µM): 0.766
viability ([1]; 3 µM): 0.592
viability ([1]; 15 µM): 0.456
viability ([2]; 0.024 µM): 0.393
viability ([2]; 0.12 µM): 0.381
viability ([2]; 0.6 µM): 0.382
viability ([2]; 3 µM): 0.729
viability ([2]; 15 µM): 0.563
viability ([3]; 0.024 µM): 0.834
viability ([3]; 0.12 µM): 0.755
viability ([3]; 0.6 µM): 0.617
viability ([3]; 3 µM): 0.841
viability ([3]; 15 µM): 0.796
viability ([4]; 0.024 µM): 0.956
viability ([4]; 0.12 µM): 0.97
viability ([4]; 0.6 µM): 1
viability ([4]; 3 µM): 0.972
viability ([4]; 15 µM): 0.928
viability ([5]; 0.024 µM): 0.987
viability ([5]; 0.12 µM): 1.09
viability ([5]; 0.6 µM): 0.606
viability ([5]; 3 µM): 0.5
viability ([5]; 15 µM): 0.47
viability ([6]; 0.024 µM): 1.12
viability ([6]; 0.12 µM): 1.04
viability ([6]; 0.6 µM): 0.76
viability ([6]; 3 µM): 0.818
viability ([6]; 15 µM): 0.771
viability ([7]; 0.024 µM): 1.04
viability ([7]; 0.12 µM): 1.07
viability ([7]; 0.6 µM): 0.72
viability ([7]; 3 µM): 0.754
viability ([7]; 15 µM): 0.736
viability ([8]; 0.024 µM): 0.888
viability ([8]; 0.12 µM): 0.862
viability ([8]; 0.6 µM): 0.751
viability ([8]; 3 µM): 0.791
viability ([8]; 15 µM): 0.485
viability ([9]; 0.024 µM): 1.06
viability ([9]; 0.12 µM): 1.02
viability ([9]; 0.6 µM): 0.875
viability ([9]; 3 µM): 0.9
viability ([9]; 15 µM): 0.738
viability ([10]; 0.024 µM): 0.968
viability ([10]; 0.12 µM): 0.969
viability ([10]; 0.6 µM): 0.947
viability ([10]; 3 µM): 0.708
viability ([10]; 15 µM): 0.599
viability ([11]; 0.024 µM): 1.02
viability ([11]; 0.12 µM): 0.98
viability ([11]; 0.6 µM): 0.741
viability ([11]; 3 µM): 0.781
viability ([11]; 15 µM): 0.756
viability ([12]; 0.024 µM): 0.956
viability ([12]; 0.12 µM): 0.552
viability ([12]; 0.6 µM): 0.512
viability ([12]; 3 µM): 0.379
viability ([12]; 15 µM): 0.311
viability ([13]; 0.024 µM): 0.859
viability ([13]; 0.12 µM): 0.734
viability ([13]; 0.6 µM): 0.238
viability ([13]; 3 µM): 0.122
viability ([13]; 15 µM): 0.0937
viability ([14]; 0.024 µM): 1.04
viability ([14]; 0.12 µM): 1.01
viability ([14]; 0.6 µM): 0.7
viability ([14]; 3 µM): 0.519
viability ([14]; 15 µM): 0.393

CC(C)C[C@H](NC(=O)CNC(=O)c1cc(Cl)ccc1Cl)B(O)O [Ixazomib]
viability ([1]; 0.008 µM): 0.843
viability ([1]; 0.04 µM): 0.979
viability ([1]; 0.2 µM): 0.932
viability ([1]; 1 µM): 0.972
viability ([1]; 5 µM): 0.933
viability ([2]; 0.008 µM): 0.929
viability ([2]; 0.04 µM): 1
viability ([2]; 0.2 µM): 0.924
viability ([2]; 1 µM): 1.04
viability ([2]; 5 µM): 1.01
viability ([3]; 0.008 µM): 0.957
viability ([3]; 0.04 µM): 1.15
viability ([3]; 0.2 µM): 0.891
viability ([3]; 1 µM): 1.06
viability ([3]; 5 µM): 1.03
viability ([4]; 0.008 µM): 0.975
viability ([4]; 0.04 µM): 0.971
viability ([4]; 0.2 µM): 1.1
viability ([4]; 1 µM): 1.01
viability ([4]; 5 µM): 0.978
viability ([5]; 0.008 µM): 0.923
viability ([5]; 0.04 µM): 0.963
viability ([5]; 0.2 µM): 0.834
viability ([5]; 1 µM): 0.942
viability ([5]; 5 µM): 0.979
viability ([6]; 0.008 µM): 0.525
viability ([6]; 0.04 µM): 0.757
viability ([6]; 0.2 µM): 0.633
viability ([6]; 1 µM): 0.786
viability ([6]; 5 µM): 0.936
viability ([7]; 0.008 µM): 0.927
viability ([7]; 0.04 µM): 1
viability ([7]; 0.2 µM): 0.983
viability ([7]; 1 µM): 1.14
viability ([7]; 5 µM): 1.09
viability ([8]; 0.008 µM): 0.932
viability ([8]; 0.04 µM): 0.95
viability ([8]; 0.2 µM): 0.952
viability ([8]; 1 µM): 1.02
viability ([8]; 5 µM): 1.08
viability ([9]; 0.008 µM): 0.982
viability ([9]; 0.04 µM): 0.955
viability ([9]; 0.2 µM): 0.939
viability ([9]; 1 µM): 0.937
viability ([9]; 5 µM): 0.955
viability ([10]; 0.008 µM): 0.987
viability ([10]; 0.04 µM): 0.96
viability ([10]; 0.2 µM): 0.901
viability ([10]; 1 µM): 0.95
viability ([10]; 5 µM): 0.981
viability ([11]; 0.008 µM): 0.842
viability ([11]; 0.04 µM): 0.977
viability ([11]; 0.2 µM): 0.807
viability ([11]; 1 µM): 0.911
viability ([11]; 5 µM): 1.08
viability ([12]; 0.008 µM): 1.07
viability ([12]; 0.04 µM): 0.69
viability ([12]; 0.2 µM): 0.968
viability ([12]; 1 µM): 0.583
viability ([12]; 5 µM): 0.627
viability ([13]; 0.008 µM): 1.07
viability ([13]; 0.04 µM): 0.874
viability ([13]; 0.2 µM): 1.13
viability ([13]; 1 µM): 0.811
viability ([13]; 5 µM): 0.8
viability ([14]; 0.008 µM): 0.915
viability ([14]; 0.04 µM): 0.73
viability ([14]; 0.2 µM): 0.987
viability ([14]; 1 µM): 0.74
viability ([14]; 5 µM): 0.781
